Experimental data from US20100004193A1, “COMBINATION THERAPY” (FONDAZIONE PER LA RICERCA BIOMEDICA AVANZATA ONLUS - …, priority 2008, published 2010).

What was measured:
[1] = concentrations comparable to the concentrations used by the applicant; cited from earlier work
[2] = tested on: T-24, HT-1197, HT-1376, MCF-7, A-549 and AsPC-1 cancer cell lines; experiment: EC50 for Gem-induced cell death or growth inhibition with G418 at fixed concentrations; type: cell-based; conditions: G418 at fixed concentrations with no or little effect on their own; Gem 2 to 5 days
Procedure: Cell culture, cell death assays and growth assays—The T-24 and HT-1376 cell lines were purchased from the German Collection of Microorganisms and Cell Cultures and were cultivated in DMEM, high glucose, containing 10% Fetal Bovine Serum (FBS) or Minimum Essential Medium with 10% FBS and non-essential amino acids, respectively. HT-1197 was a gift from Bioxell (Milano) and was cultured like HT-1376. […] HT-1376 and its clones were incubated for 4 days and HT-1197 for 5 days with Gem including one medium change after 2 days. The percentage of dead cells that took up propidium iodide was determined using flow cytometry. […] Staining with Annexin-V-FITC was performed according to the manufacturer's description (Roche). […] Absorbance was read at 570 nm with reference at 650 nm.
G418 enhances Gem-induced cell death or growth inhibition in various cancer cell lines—Since enhancing Gem action would benefit therapy, we tested whether supplementing Gem with G418 could augment the effect of Gem also in other cancer cell lines. To this end, we added G418 at fixed concentrations and determined the EC50 value for Gem-induced cell death. […]
FIG. 6. […] Cell death was measured by propidium iodide dye exclusion except for MCF-7 and AsPC-1 where cell number was measured by MTT-assay. […]

[3] = tested on: T-24, HT-1376 and HT-1197 cell lines and clones; experiment: Metabolic labelling of protein synthesis with 35S-methionine/cysteine; type: cell-based
Procedure: Cells were labelled for 1.5 hours in growth medium without methionine and cysteine supplemented with 30 μCi/ml [^35S]-methionine/cysteine. Subsequently, the proteins were precipitated with TCA as described previously (Zhang et al., 2004). The incorporated radioactivity was expressed as counts/μg protein.
FIG. 3. Protein synthesis in the presence of Gem is higher in the resistant clones. […] Medium was removed and replaced for 1.5 h by medium containing 30 μCi/ml ^35S-methionine/cysteine (pulse). […] The reduction in radioactively labelled proteins due to protein degradation during the chase was significant as indicated. (B) The three parental cell lines and HT-1197 and T-24 stably expressing Bcl-2 were incubated with Gem as in (A) in the presence of 40 μM (T-24, HT-1376) or 80 μM z-VAD-fmk (HT-1197) or vehicle (DMSO). Subsequently, the cells were labelled as before. (C) Two sensitive and two resistant clones of each clone set were incubated and labelled as in (A). […] Results are from two independent experiments in duplicate. Error bars depict S.E.M. **P<0.01.
FIG. 5. Protein synthesis inhibitors diminish Gem resistance. (A) Two sensitive and two resistant clones of each clone set were incubated with Gem (T-24: 30 nM, 2 days; HT-1376: 80 nM, 4 days; HT-1197: 120 nM, 5 days). […] Cell death was measured by propidium iodide dye exclusion using flow cytometry. (B) The parental cell lines were incubated with Gem (T-24: 30 nM Gem, 1 day; HT-1376: 80 nM, 3 days; HT-1197: 120 nM, 3 days) in the absence or presence of the indicated protein synthesis inhibitors (250 μg/ml G418 for T-24, 80 μg/ml for HT-1376, 70 μg/ml for HT-1197; 500 ng/ml CHX for all cell lines; 10 nM rapamycin for all cell lines). Subsequently, cells were labeled with 30 μCi/ml ^35S-methionine/cysteine. (C) The parental cell lines were incubated with Gem like for the selection of the Gem-resistant clones and additionally G418 was added at 250 μg/ml (T-24), 80 μg/ml G418 (HT-1376) or 70 μg/ml G418 (HT-1197). Afterward, the remaining cells on the culture plate were stained with crystal violet. A representative assay is shown. All other data are from two independent experiments in duplicate. Error bars represent S.E.M. **P-<0.01, ***p<0.001.

T-24 and HT-1197 = experiment: Form of Gem-induced cell death, Bcl-2 overexpression; type: cell-based; conditions: inhibited by Bcl-2 overexpression
Procedure: (§1) Cell culture, cell death assays and growth assays—The T-24 and HT-1376 cell lines were purchased from the German Collection of Microorganisms and Cell Cultures and were cultivated in DMEM, high glucose, containing 10% Fetal Bovine Serum (FBS) or Minimum Essential Medium with 10% FBS and non-essential amino acids, respectively. HT-1197 was a gift from Bioxell (Milano) and was cultured like HT-1376. […] HT-1376 and its clones were incubated for 4 days and HT-1197 for 5 days with Gem including one medium change after 2 days. The percentage of dead cells that took up propidium iodide was determined using flow cytometry. […] Staining with Annexin-V-FITC was performed according to the manufacturer's description (Roche). To assess the cell number by staining with 3-(4,5-Dimethylthiazol-2-yl)-2,5-diphenyltetrazolium bromide (MTT), MTT was added at 500 μg/ml. After 2 hours, precipitate was solubilized by addition of 0.04N HCl/Isopropanol. Absorbance was read at 570 nm with reference at 650 nm.
In HT-1376, apoptosis could not be inhibited by Bcl-2. However, this might be attributed to the relatively low overexpression of Bcl-2 (Supplementary FIG. 1).

[4] = tested on: eIF2α, eukaryotic initiation factor 4E binding protein 1, ribosomal protein S6; experiment: Phosphorylation state of translation regulators upon Gem treatment; type: cell-based
Procedure: Quantitative real-time PCR and immunoblotting—We used the same RNA that was isolated for the DNA microarrays and prepared cDNA using Applied Biosystem (ABI) Reverse Transcription Reagents with random hexamer primers. Real-time PCR was performed using the PCR Master Mix (ABI) and ready-made TaqMan expression assays on an ABI Prism 7000. […] For this clone set, we used another “house-keeping gene”, HPRT1, for normalizing the expression values. Expression levels were calculated according to the formula: 1000*2^([…]). Cell lysis for protein extraction was performed on the same day as metabolic labelling. Immunoblotting was done as described previously (Abraham et al., 2005).

[5] = tested on: clones of T-24, HT-1376 and HT-1197 bladder cancer cell lines; experiment: Cell death by propidium iodide dye exclusion (flow cytometry) in Gem-sensitive and Gem-resistant clones; type: cell-based; conditions: 2 sensitive and 2 resistant clones per clone set; Gem 30 nM 2 days (T-24), 80 nM 4 days (HT-1376), 120 nM 5 days (HT-1197); G418 250 or 70 μg/ml, cycloheximide 500 ng/ml, rapamycin 10 nM
Procedure: as §1
Generation of Gemcitabine-resistant clones and stable cell lines—The T-24 cell line was incubated with 120 nM Gem for 3 days, HT-1376 with 160 nM Gem and HT-1197 with 1.6 μM for 7 days. […] Subsequently, the medium was changed for normal growth medium without Gem and the cells were grown for additional 1 to 3 weeks. […]
FIG. 5. […] Cell death was measured by propidium iodide dye exclusion using flow cytometry. […]

CN[C@@H]1[C@@H](O)[C@@H](O[C@@H]2[C@@H](O)[C@H](O[C@H]3O[C@H]([C@@H](C)O)[C@@H](O)[C@H](O)[C@H]3N)[C@@H](N)C[C@H]2N)OC[C@]1(C)O [G418]
Effects of G418 treatment on mice [1]: without detectable effects on mice
Decrease of the EC50 value for Gem-induced cell death by addition of G418 [2]: up to 30 fold

Nc1ccn([C@@H]2O[C@H](CO)[C@@H](O)C2(F)F)c(=O)n1 [Gem, 2′-2′-difluorodeoxycytidine]
Protein synthesis upon Gem treatment of the parental cell lines ([3]; T-24 30 nM 1 day, HT-1376 80 nM 3 days, HT-1197 120 nM 3 days): protein synthesis was reduced
Protein synthesis upon Gem treatment, resistant versus sensitive clones ([3]; two resistant and two sensitive clones of each clone set): decreased protein synthesis significantly less in the resistant clones compared to the sensitive clones
Form of cell death induced by Gem (T-24 and HT-1197): induced an apoptotic form of cell death
Phosphorylation state upon Gem treatment [4]: neither eIF2α nor eukaryotic initiation factor 4E binding protein 1 nor ribosomal protein S6 changed phosphorylation state

C[C@@H]1C[C@@H]([C@H](O)CC2CC(=O)NC(=O)C2)C(=O)[C@@H](C)C1 [cycloheximide]
Protein synthesis in the presence of Gem plus a protein synthesis inhibitor ([3]; parental cell lines, Gem 30 nM 1 day (T-24), 80 nM 3 days (HT-1376), 120 nM 3 days (HT-1197), G418 250/80/70 μg/ml, CHX 500 ng/ml, rapamycin 10 nM): increased protein synthesis compared to Gem alone
Gem-induced cell death on concomitant treatment with a protein synthesis inhibitor [5]: inhibited Gem-induced cell death

z-VAD-fmk
Protein synthesis rates with Gem in the presence of the caspase inhibitor ([3]; 40 μM (T-24, HT-1376) or 80 μM (HT-1197) z-VAD-fmk): did not alter the protein synthesis rates with Gem
